Laboratory results: ChEMBL document CHEMBL5154925, “Design and Optimization of Thienopyrimidine Derivatives as Potent and Selective PI3Kδ Inhibitors for the Treatment of B-Cell Malignancies” (J Med Chem, 2022)
In brackets after ≈: the same amount, converted by molar mass. Activity calls are given as the source filed them. No cut-off for these calls is given here.

How the values were obtained:
[1] = Cmax in ICR mouse at 3 mg/kg, iv measured upto 24 hrs by LC-MS/MS analysis; assay type: ADME, organism-based; parameters: time < 24 hrs, dose 3 mg/kg, route iv; conditions: in vivo
SU-DHL-6 [2] = assay: Inhibition of P13K signaling pathway in human SU-DHL-6 cells assessed as reduction in […] incubated for 4 hrs by Western blot analysis; assay type: cell-based; conditions: dose 2-50 µM, DDE = dose-dependent effect
[3] = Microsomal stability in mouse liver microsomes assessed as half life; assay type: ADME, Microsome
[4] = target: T1, Phosphatidylinositol 4,5-bisphosphate 3-kinase catalytic subunit delta isoform (Homo sapiens, UniProt O00329); assay: Inhibition of PI3Kdelta (unknown origin) using PIP2 as substrate measured after 1 hr in presence of ATP by ADP-glo luminescence assay
T1 sequence (O00329 whole entry): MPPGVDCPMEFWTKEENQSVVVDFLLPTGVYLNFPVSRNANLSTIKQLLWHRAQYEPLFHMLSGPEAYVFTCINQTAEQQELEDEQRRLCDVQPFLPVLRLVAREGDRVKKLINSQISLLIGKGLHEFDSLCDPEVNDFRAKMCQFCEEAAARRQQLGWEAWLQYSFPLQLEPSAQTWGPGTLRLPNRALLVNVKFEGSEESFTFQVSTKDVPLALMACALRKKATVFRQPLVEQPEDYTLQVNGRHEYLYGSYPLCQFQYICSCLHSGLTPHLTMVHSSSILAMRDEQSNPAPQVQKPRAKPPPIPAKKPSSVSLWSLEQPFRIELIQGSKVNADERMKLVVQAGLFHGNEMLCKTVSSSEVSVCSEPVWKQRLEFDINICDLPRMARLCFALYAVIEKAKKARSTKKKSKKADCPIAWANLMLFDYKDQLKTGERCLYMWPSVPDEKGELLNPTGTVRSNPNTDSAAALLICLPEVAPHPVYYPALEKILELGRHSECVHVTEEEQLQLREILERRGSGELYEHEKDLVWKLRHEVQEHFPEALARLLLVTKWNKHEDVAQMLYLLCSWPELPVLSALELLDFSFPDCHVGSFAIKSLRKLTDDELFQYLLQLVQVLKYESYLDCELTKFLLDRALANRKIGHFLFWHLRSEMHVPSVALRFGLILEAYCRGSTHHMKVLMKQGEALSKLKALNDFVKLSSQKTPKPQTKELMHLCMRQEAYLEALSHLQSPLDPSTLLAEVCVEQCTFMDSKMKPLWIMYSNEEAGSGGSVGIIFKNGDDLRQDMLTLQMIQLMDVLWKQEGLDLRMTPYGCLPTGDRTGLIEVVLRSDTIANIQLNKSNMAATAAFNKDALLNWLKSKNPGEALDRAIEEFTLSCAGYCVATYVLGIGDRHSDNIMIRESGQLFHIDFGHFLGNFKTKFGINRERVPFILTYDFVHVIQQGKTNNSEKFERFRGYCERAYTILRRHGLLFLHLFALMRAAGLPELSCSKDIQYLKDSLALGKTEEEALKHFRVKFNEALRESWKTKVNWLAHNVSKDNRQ

[5] = target: Ribosomal protein S6 kinase alpha-3 (Homo sapiens) (UniProt P51812); assay: Inhibition of wild type […] human RSK2 (M1 to D394 residues) expressed in mammalian expression system assessed as residual activity at 10 uM relative to control
Sequence of Ribosomal protein S6 kinase alpha-3 (Homo sapiens) (P51812 whole entry, the tested form may be a part): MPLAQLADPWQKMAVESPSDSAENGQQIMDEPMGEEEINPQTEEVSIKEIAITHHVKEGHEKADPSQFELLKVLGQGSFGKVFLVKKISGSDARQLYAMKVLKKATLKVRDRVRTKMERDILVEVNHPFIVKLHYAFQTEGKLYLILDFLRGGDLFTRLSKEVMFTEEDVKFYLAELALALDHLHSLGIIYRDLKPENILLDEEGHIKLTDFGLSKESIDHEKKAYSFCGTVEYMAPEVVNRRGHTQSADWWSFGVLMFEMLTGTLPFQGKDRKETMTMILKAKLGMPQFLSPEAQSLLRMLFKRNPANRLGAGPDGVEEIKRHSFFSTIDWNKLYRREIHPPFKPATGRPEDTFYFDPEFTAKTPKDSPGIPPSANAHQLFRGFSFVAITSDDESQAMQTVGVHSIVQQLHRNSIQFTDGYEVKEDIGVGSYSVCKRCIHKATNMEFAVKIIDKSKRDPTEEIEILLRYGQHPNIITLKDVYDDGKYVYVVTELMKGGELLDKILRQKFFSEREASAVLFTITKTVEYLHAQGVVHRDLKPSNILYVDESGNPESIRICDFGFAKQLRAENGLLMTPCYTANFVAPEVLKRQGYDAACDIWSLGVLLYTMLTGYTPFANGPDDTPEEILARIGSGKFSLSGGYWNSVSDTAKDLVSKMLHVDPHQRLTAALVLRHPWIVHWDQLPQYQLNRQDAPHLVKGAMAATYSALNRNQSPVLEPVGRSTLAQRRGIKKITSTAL

Pfeiffer [6] = assay: Induction of apoptosis in human Pfeiffer cells assessed as viable […] cells at 50 uM incubated for 48 hrs by annexin V-FITC staining based flow cytometry (reference value: 81.14 %); assay type: functional
Pfeiffer [7] = assay: Induction of apoptosis in human Pfeiffer cells assessed as late apoptotic cells at 10 uM incubated for 48 hrs by annexin V-FITC staining based flow cytometry (reference value: 7.87 %); assay type: functional
Pfeiffer [8] = assay: Inhibition of P13K signaling pathway in human Pfeiffer cells assessed as reduction in AKT phosphorylation at S473 residue incubated for 4 hrs by Western blot analysis; assay type: cell-based; conditions: dose 2-50 µM, DDE = dose-dependent effect
[9] = Half life in ICR mouse at 30 mg/kg, po measured upto 24 hrs by LC-MS/MS analysis; assay type: ADME, organism-based; conditions: in vivo
JeKo-1 = assay: Antiproliferative activity against human JeKo-1 cells assessed as cell growth inhibition incubated for 96 hrs by cell titer glo assay; assay type: functional, cell-based; conditions: JeKo-1, 96 h
[10] = Half life in ICR mouse at 3 mg/kg, iv measured upto 24 hrs by LC-MS/MS analysis; assay type: ADME, organism-based; conditions: in vivo
SU-DHL-6 [11] = assay: Inhibition of P13K signaling pathway in human SU-DHL-6 cells assessed as reduction in AKT phosphorylation at S473 residue incubated for 4 hrs by Western blot analysis; assay type: cell-based; conditions: dose 2-50 µM, DDE = dose-dependent effect
[12] = Solubility of the compound in PBS; assay type: physicochemical
[13] = target: T1, Phosphatidylinositol 4,5-bisphosphate 3-kinase catalytic subunit delta isoform; assay: Inhibition of PI3Kdelta in IgM stimulated human Raji cells incubated for 10 mins by AlphaLISA assay; assay type: cell-based
Pfeiffer [14] = assay: Induction of apoptosis in human Pfeiffer cells assessed as viable […] cells at 2 uM incubated for 48 hrs by annexin V-FITC staining based flow cytometry (reference value: 81.14 %); assay type: functional
Pfeiffer [15] = assay: Antitumour activity against human Pfeiffer cells xenografted in nude mouse assessed as reduction in Ki67 expression in tumor at 75 mg/kg, po BID for 21 days by immunohistochemical analysis; assay type: functional, organism-based; conditions: time 21.0 day
Pfeiffer [16] = assay: Inhibition of P13K signaling pathway in human Pfeiffer cells assessed as reduction in […] incubated for 4 hrs by Western blot analysis; assay type: cell-based; conditions: dose 2-50 µM, DDE = dose-dependent effect
Pfeiffer [17] = assay: Induction of apoptosis in human Pfeiffer cells assessed as viable […] cells at 10 uM incubated for 48 hrs by annexin V-FITC staining based flow cytometry (reference value: 81.14 %); assay type: functional
[18] = Solubility of the compound in FaSSIF; assay type: physicochemical
Pfeiffer [19] = assay: Antitumor activity against human Pfeiffer cells xenografted in nude mouse assessed as tumor growth inhibition at 5 mg/kg, ip BID for 21 days and measured twice weekly; assay type: functional; conditions: 504 h, time 21 day, read-out: TGI
Pfeiffer [20] = assay: Antitumour activity against human Pfeiffer cells xenografted in nude mouse assessed as reduction in Ki67 expression in tumor at 5 mg/kg, ip BID for 21 days by immunohistochemical analysis; assay type: functional, organism-based; conditions: time 21.0 day
[21] = target: Phosphatidylinositol 4,5-bisphosphate 3-kinase catalytic subunit beta isoform (Homo sapiens, UniProt P42338); assay: Inhibition of PI3Kbeta (unknown origin) using PIP2 as substrate measured after 1 hr in presence of ATP by ADP-glo luminescence assay
Sequence of Phosphatidylinositol 4,5-bisphosphate 3-kinase catalytic subunit beta isoform (P42338 whole entry, canonical isoform): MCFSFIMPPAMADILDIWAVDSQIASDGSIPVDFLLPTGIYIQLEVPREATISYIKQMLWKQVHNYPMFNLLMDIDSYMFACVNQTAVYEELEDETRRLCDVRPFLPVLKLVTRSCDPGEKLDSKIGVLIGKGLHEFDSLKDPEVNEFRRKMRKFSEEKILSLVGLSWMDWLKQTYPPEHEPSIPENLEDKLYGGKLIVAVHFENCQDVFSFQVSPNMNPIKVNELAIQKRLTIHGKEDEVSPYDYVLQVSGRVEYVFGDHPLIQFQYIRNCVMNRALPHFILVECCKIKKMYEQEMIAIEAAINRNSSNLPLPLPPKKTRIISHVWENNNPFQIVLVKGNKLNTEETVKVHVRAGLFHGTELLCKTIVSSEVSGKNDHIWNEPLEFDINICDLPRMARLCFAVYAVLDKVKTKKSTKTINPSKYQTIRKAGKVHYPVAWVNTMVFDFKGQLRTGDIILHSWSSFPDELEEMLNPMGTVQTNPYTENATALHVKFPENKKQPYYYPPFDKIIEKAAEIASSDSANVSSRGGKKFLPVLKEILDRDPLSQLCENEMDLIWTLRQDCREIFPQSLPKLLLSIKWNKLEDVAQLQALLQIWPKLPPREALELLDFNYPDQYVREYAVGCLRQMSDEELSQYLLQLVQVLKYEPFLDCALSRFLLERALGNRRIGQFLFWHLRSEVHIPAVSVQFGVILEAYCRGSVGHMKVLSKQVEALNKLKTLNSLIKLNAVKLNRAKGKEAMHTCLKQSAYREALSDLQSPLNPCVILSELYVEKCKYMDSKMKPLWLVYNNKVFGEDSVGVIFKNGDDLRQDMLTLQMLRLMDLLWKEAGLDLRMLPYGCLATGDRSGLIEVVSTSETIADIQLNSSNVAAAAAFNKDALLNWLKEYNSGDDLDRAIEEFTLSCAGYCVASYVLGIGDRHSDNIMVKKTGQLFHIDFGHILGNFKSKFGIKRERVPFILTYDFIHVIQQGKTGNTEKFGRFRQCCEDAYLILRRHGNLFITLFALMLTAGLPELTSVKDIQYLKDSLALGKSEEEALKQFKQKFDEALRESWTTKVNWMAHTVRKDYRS

[22] = Toxicity in nude mouse xenografted with human Pfeiffer cells assessed as effect on body weight at 5 mg/kg, ip BID for 21 days and measured twice weekly; assay type: organism-based; conditions: in vivo, 504 h, time 21 day
Pfeiffer [23] = assay: Induction of apoptosis in human Pfeiffer cells assessed as necrotic cells at 50 uM incubated for 48 hrs by annexin V-FITC staining based flow cytometry (reference value: 6.62 %); assay type: functional
Pfeiffer [24] = assay: Induction of cell cycle arrest in human Pfeiffer cells assessed as accumulation at G0/G1 phase at 2 to 50 uM after 24 hrs by propidium iodide and RNAase staining based flow cytometric analysis; assay type: functional; conditions: dose 2-50 µM
[25] = Clearance in ICR mouse at 3 mg/kg, iv measured upto 24 hrs by LC-MS/MS analysis; assay type: ADME, organism-based; conditions: in vivo
[26] = Cmax in ICR mouse at 30 mg/kg, po measured upto 24 hrs by LC-MS/MS analysis; assay type: ADME, organism-based; parameters: time < 24 hrs, dose 30 mg/kg, route po; conditions: in vivo

CCC(=O)N1CC[C@H](Nc2ncnc3sc(-c4cnc(OC)c(OC)c4)cc23)C1
Cmax [1]: 3190 ng/mL
inhibition (SU-DHL-6 [2]): Dde
half-life [3]: 1.51 h
IC50 [4]: 0.0057 µM
Activity [5]: 23%
Activity (Pfeiffer [6]): 33.75%
Activity (Pfeiffer [7]): 22.9%
inhibition (Pfeiffer [8]): Dde
half-life [9]: 0.89 h
IC50 (JeKo-1): 14.7 µM
half-life [10]: 1.73 h
inhibition (SU-DHL-6 [11]): Dde
solubility [12]: 44.5 µM (≈ 18.4 µg/mL)
IC50 [13]: 0.137 µM
Activity (Pfeiffer [14]): 76.43%
Activity (Pfeiffer [15]): Active
inhibition (Pfeiffer [16]): Dde
Activity (Pfeiffer [17]): 65.34%
solubility [18]: 102 µM (≈ 42.1 µg/mL)
inhibition in vivo at 5 mg/kg (Pfeiffer [19]): 69%
Activity (Pfeiffer [20]): Active
IC50 [21]: 0.972 µM
Activity [22]: 10%
Activity (Pfeiffer [23]): 7.18%
Activity (Pfeiffer [24]): Active
clearance [25]: 36.5 mL/min/kg
Cmax [26]: 372 ng/mL
